Laboratory results from patent US20260356819A1, “OXOISOINDOLINYL-SUBSTITUTED […] DERIVATIVE AND USE THEREOF” (GLUETACS THERAPEUTICS (SHANGHAI) CO., LTD., priority 2023, published 2026).

Columns and labels:
[1] = biological target: T1, CK1α (Homo sapiens, UniProt P48729+Q96SW2); experiment: Western blot degradation of CK1α in hPBMCs (24 h); format: cell-based; details: compounds at 50 nM and 500 nM
T1 construct: The supernatant was aspirated as the extracted total cell protein; endogenous in cells; host or cells: human peripheral blood mononuclear cells (hPBMCs)
How it was run: (§1)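 Compounds were tested at 50 nM and 500 nM on hPBMCs (1×10^6 cells/mL) for 24 h, alongside DMSO. Proteins were detected by Western blot after denaturation at 95 °C; remaining protein computed from normalised band grayscale.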

[2] = tested on: MM.1S cells; experiment: Inhibition of proliferation of multiple myeloma cells MM.1S (cell viability assay, 96 h); format: cell-based, human; details: read-out: inhibitory activity (IC50) against tumor cells proliferation, MM.1S
Method: The tumor cells used herein were cultured in a cell culture medium listed in table 2 at 37 °C in an incubator with 5% CO2. Prior to experimentation, all cell lines used were correctly identified by STR profiling, and tested negative for Mycoplasma contamination using a Mycoplasma detection kit through routine screenings.
The IC50 values of the compounds of the present disclosure (including the compounds in Table 1, and Examples 1-498) were determined using the CellTiter-Meiluncell Luminescent Cell Viability Assay Kit from Dalian Meilun Biotech Co., Ltd. The detailed procedure is as follows: Tumor cells were seeded in 96-well cell culture plates at the densities specified in Table 3. On the following day, the test compounds of the present disclosure were subjected to serial dilution. […] Subsequently, 0.5 μL of the test compound dilution was transferred into the 96-well plate containing the cells, with each well containing 100 μL of cell culture medium. […] Into the 96-well plate, the diluted test compounds and corresponding detection reagents were added, resulting in final test compound concentrations of 500 nM and 10 nM, respectively. The experimental procedure is described below using the diluted 2 μM test compound as an example.
0.5 μL of the aforementioned diluted compound of the present disclosure (including the compounds in Table 1, and Examples 1-498) was added to the seeded cells in 100 μL of medium, yielding a final test compound concentration of 10 nM. After the cells were treated with the compounds of the present disclosure for a specified period, the cell viability assay reagent was added to the culture medium according to the kit's instructions to determine cell viability. […] All controls were treated using the same procedure as the compounds of the present disclosure. The growth inhibition curves for the compounds of the present disclosure were plotted using Prism GraphPad software, and the IC50 values were calculated therefrom.

[3] = biological target: T2, GSPT1 (Homo sapiens, UniProt P15170+Q96SW2); experiment: Western blot degradation of GSPT1 in hPBMCs (24 h); format: cell-based; details: compounds at 50 nM and 500 nM
T2 construct: The supernatant was aspirated as the extracted total cell protein; endogenous in cells; host or cells: human peripheral blood mononuclear cells (hPBMCs)
How it was run: as §1

[4] = biological target: T3, IKZF1 (Homo sapiens, UniProt Q13422+Q96SW2); experiment: Western blot degradation of IKZF1 in hPBMCs (24 h); format: cell-based; details: compounds at 50 nM and 500 nM
T3 construct: The supernatant was aspirated as the extracted total cell protein; endogenous in cells; host or cells: human peripheral blood mononuclear cells (hPBMCs)
How it was run: as §1

[5] = biological target: T4, IKZF3 (Homo sapiens, UniProt Q96SW2+Q9UKT9); experiment: Western blot degradation of IKZF3 in hPBMCs (24 h); format: cell-based; details: compounds at 50 nM and 500 nM
T4 construct: The supernatant was aspirated as the extracted total cell protein; endogenous in cells; host or cells: human peripheral blood mononuclear cells (hPBMCs)
How it was run: as §1

[6] = biological target: T5, WEE1 (Homo sapiens, UniProt P30291+Q96SW2); experiment: Western blot degradation of WEE1 in hPBMCs (24 h); format: cell-based; details: compounds at 50 nM and 500 nM
T5 construct: The supernatant was aspirated as the extracted total cell protein; endogenous in cells; host or cells: human peripheral blood mononuclear cells (hPBMCs)
How it was run: as §1

[7] = biological target: T6, IKZF2 (Homo sapiens, UniProt Q96SW2+Q9UKS7); experiment: Western blot degradation of IKZF2 in hPBMCs (24 h); format: cell-based; details: compounds at 50 nM and 500 nM
T6 construct: The supernatant was aspirated as the extracted total cell protein; endogenous in cells; host or cells: human peripheral blood mononuclear cells (hPBMCs)
How it was run: as §1

T2 sequence (P15170 whole entry): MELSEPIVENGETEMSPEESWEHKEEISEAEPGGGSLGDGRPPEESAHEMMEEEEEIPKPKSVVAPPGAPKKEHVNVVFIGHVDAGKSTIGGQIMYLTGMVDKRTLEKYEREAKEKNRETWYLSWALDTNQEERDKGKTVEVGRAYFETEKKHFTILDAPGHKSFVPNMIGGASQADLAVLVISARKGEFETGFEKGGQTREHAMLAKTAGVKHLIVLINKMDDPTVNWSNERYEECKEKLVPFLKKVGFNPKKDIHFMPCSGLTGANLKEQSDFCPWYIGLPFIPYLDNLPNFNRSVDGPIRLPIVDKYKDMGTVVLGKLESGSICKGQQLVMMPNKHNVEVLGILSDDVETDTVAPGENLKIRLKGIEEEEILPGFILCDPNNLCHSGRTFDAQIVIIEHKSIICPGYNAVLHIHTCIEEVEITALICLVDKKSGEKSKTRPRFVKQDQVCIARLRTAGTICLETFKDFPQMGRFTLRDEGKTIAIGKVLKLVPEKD
T2 sequence (Q96SW2 whole entry): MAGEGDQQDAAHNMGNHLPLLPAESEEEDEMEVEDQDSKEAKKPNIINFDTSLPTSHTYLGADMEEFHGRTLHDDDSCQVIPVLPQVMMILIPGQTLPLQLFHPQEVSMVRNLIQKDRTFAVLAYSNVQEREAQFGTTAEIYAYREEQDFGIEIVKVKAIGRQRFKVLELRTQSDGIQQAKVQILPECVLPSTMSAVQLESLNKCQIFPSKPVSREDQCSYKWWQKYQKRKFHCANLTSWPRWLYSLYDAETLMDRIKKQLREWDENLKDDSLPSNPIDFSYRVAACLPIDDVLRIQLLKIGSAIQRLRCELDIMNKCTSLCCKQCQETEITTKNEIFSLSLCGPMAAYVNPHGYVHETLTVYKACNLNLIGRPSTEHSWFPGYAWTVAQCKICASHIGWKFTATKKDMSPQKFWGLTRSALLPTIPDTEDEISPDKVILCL
T2 sequence (Q16531 whole entry partner): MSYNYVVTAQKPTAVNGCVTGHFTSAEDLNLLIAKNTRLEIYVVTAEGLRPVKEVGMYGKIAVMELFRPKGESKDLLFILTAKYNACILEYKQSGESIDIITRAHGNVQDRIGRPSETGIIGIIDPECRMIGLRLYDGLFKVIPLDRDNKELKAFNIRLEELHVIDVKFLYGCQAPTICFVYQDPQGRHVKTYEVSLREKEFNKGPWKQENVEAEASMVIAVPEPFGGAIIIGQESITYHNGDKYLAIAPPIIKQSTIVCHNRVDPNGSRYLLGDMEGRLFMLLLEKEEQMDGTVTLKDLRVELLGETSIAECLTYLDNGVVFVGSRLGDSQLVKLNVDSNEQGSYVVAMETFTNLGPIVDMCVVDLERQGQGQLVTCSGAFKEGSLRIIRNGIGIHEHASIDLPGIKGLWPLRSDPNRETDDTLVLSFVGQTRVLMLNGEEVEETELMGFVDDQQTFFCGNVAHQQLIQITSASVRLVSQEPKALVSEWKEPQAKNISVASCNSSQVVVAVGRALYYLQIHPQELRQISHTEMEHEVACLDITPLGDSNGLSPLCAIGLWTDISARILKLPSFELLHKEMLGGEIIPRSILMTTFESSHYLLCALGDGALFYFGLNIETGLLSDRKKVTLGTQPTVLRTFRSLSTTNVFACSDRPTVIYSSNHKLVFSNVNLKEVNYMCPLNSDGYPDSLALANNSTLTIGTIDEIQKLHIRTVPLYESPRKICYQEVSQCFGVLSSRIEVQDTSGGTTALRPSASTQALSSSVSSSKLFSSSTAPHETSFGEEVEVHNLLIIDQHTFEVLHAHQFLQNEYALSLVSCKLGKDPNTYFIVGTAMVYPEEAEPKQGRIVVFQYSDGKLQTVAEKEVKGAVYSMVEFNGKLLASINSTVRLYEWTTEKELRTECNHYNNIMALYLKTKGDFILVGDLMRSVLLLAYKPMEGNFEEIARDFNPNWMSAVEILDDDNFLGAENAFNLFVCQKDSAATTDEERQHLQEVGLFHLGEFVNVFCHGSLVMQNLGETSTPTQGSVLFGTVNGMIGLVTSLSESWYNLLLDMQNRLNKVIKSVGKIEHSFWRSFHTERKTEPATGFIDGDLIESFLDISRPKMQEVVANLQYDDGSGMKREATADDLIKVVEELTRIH
T1 sequence (P48729 whole entry): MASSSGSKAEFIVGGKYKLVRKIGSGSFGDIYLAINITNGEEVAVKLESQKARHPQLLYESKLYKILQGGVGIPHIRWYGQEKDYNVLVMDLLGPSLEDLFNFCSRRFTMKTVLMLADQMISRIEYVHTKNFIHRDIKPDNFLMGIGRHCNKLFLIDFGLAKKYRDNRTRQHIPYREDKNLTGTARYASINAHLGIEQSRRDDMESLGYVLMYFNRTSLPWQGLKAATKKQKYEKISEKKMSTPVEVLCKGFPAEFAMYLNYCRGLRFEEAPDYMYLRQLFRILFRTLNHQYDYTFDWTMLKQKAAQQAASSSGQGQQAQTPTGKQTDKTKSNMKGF
T1 sequence (Q96SW2 whole entry): as the sequence (Q96SW2 whole entry) above
T1 sequence (Q16531 whole entry partner): as the sequence (Q16531 whole entry partner) above
T6 sequence (Q9UKS7 whole entry): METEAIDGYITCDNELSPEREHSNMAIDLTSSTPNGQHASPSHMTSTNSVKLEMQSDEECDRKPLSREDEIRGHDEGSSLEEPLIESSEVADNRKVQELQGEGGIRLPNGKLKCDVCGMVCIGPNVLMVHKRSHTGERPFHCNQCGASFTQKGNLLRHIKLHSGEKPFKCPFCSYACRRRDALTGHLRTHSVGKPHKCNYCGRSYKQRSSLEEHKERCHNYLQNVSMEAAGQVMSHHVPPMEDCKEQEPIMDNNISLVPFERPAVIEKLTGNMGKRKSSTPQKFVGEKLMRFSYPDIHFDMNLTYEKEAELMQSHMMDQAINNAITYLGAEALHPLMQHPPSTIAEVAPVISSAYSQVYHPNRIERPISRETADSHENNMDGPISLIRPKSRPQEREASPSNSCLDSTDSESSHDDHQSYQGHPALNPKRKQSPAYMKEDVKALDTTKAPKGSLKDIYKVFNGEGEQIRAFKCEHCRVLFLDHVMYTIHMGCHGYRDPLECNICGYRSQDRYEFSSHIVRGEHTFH
T6 sequence (Q96SW2 whole entry): as the sequence (Q96SW2 whole entry) above
T6 sequence (Q16531 whole entry partner): as the sequence (Q16531 whole entry partner) above
T3 sequence (Q13422 whole entry): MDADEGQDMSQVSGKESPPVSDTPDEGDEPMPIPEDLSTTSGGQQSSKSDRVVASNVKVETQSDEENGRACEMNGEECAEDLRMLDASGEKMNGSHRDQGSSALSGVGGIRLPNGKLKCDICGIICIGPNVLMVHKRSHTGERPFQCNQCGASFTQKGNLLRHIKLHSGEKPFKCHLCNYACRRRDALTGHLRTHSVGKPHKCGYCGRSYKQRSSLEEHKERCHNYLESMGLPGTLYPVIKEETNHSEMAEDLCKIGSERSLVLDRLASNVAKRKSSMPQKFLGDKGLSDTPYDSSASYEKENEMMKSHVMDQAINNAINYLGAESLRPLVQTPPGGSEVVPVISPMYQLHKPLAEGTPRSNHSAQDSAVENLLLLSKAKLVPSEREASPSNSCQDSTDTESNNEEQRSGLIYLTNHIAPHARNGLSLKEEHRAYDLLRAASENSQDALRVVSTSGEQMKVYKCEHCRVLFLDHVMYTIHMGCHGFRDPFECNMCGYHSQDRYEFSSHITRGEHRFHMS
T3 sequence (Q96SW2 whole entry): as the sequence (Q96SW2 whole entry) above
T3 sequence (Q16531 whole entry partner): as the sequence (Q16531 whole entry partner) above
T5 sequence (P30291 whole entry): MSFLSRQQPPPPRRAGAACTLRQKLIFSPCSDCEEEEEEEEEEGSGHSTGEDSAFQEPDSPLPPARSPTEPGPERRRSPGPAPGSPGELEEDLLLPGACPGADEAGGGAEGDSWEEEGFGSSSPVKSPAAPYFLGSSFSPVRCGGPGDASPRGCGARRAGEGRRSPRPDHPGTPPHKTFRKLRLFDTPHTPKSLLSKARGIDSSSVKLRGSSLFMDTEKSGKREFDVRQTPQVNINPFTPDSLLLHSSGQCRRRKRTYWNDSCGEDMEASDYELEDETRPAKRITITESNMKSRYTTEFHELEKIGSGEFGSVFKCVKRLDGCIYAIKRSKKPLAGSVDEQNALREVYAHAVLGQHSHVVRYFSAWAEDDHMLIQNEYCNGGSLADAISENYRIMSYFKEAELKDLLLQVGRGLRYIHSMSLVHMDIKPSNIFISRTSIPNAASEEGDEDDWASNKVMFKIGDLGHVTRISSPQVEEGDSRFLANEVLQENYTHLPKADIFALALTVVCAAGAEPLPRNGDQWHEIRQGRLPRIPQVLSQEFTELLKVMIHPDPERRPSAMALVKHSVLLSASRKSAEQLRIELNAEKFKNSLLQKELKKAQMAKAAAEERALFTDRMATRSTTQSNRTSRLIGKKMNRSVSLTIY
T5 sequence (Q96SW2 whole entry): as the sequence (Q96SW2 whole entry) above
T5 sequence (Q16531 whole entry partner): as the sequence (Q16531 whole entry partner) above

Structure (SMILES) | CK1α substrate protein remaining % [1] | IC50 [2] [nM] | GSPT1 substrate protein remaining % [3] | IKZF1 substrate protein remaining % [4] | IKZF3 substrate protein remaining % [5] | WEE1 substrate protein remaining % [6] | IKZF2 substrate protein remaining % [7]
O=C1CCN(N2Cc3cc(CN4CCN(C(c5ccc(F)cc5)c5ccc(F)cc5)CC4)ccc3C2=O)C(=O)N1 [GT-04894, 1-(5-((4-(bis(4-fluorophenyl)methyl)piperazin-1-yl)methyl)-1-oxoisoindolin-2-yl)dihydropyrimidine-2,4(1H,3H)-dione] | B (80%< substrate protein remaining % ≤100%) | 500 to 1000 | A (0% ≤ substrate protein remaining % ≤80%) | A (0% ≤ substrate protein remaining % ≤80%) | B (80%< substrate protein remaining % ≤100%) | A (0% ≤ substrate protein remaining % ≤80%) | A (0% ≤ substrate protein remaining % ≤80%)
CC1(C)CCC(CN2CCN(Cc3ccc4c(c3)CN(N3CCC(=O)NC3=O)C4=O)CC2)=C(c2ccc(Cl)cc2)C1 [GT-04944, 1-(5-((4-((4′-chloro-5,5-dimethyl-3,4,5,6-tetrahydro-[1,1′-biphenyl]-2-yl)methyl)piperazin-1-yl)methyl)-1-oxoisoindolin-2-yl)dihydropyrimidine-2,4(1H,3H)-dione] | B (80%< substrate protein remaining % ≤100%) | 500 to 1000 | A (0% ≤ substrate protein remaining % ≤80%) | B (80%< substrate protein remaining % ≤100%) | B (80%< substrate protein remaining % ≤100%) | B (80%< substrate protein remaining % ≤100%) | B (80%< substrate protein remaining % ≤100%)
O=C1CCN(N2Cc3cc(CN4CCN(c5cccc(Cl)n5)CC4)ccc3C2=O)C(=O)N1 [GT-05126, 1-(5-((4-(6-chloropyridin-2-yl)piperazin-1-yl)methyl)-1-oxoisoindolin-2-yl)dihydropyrimidine-2,4(1H,3H)-dione] | A (0% ≤ substrate protein remaining % ≤80%) | 300 to 500 | A (0% ≤ substrate protein remaining % ≤80%) | A (0% ≤ substrate protein remaining % ≤80%) | A (0% ≤ substrate protein remaining % ≤80%) | A (0% ≤ substrate protein remaining % ≤80%) | A (0% ≤ substrate protein remaining % ≤80%)
O=C1CCN(N2Cc3cc(CN4CCN(c5ccc(Cl)cn5)CC4)ccc3C2=O)C(=O)N1 [GT-05127, 1-(5-((4-(5-chloropyridin-2-yl)piperazin-1-yl)methyl)-1-oxoisoindolin-2-yl)dihydropyrimidine-2,4(1H,3H)-dione] | A (0% ≤ substrate protein remaining % ≤80%) | 500 to 1000 | A (0% ≤ substrate protein remaining % ≤80%) | A (0% ≤ substrate protein remaining % ≤80%) | A (0% ≤ substrate protein remaining % ≤80%) | A (0% ≤ substrate protein remaining % ≤80%) | B (80%< substrate protein remaining % ≤100%)
O=C1CCN(N2Cc3cc(CN4C[C@@H]5C[C@H]4CN5c4cccc(Cl)c4Cl)ccc3C2=O)C(=O)N1 [GT-05163, 1-(5-(((1S,4S)-5-(2,3-dichlorophenyl)-2,5-diazabicyclo[2.2.1]heptan-2-yl)methyl)-1-oxoisoindolin-2-yl)dihydropyrimidine-2,4(1H,3H)-dione] | B (80%< substrate protein remaining % ≤100%) | 500 to 1000 | A (0% ≤ substrate protein remaining % ≤80%) | A (0% ≤ substrate protein remaining % ≤80%) | A (0% ≤ substrate protein remaining % ≤80%) | B (80%< substrate protein remaining % ≤100%) | A (0% ≤ substrate protein remaining % ≤80%)
O=C1CCN(N2Cc3cc(CN4CCC(c5c[nH]c6cc(F)ccc56)CC4)ccc3C2=O)C(=O)N1 [GT-05164, 1-(5-((4-(6-fluoro-1H-indol-3-yl)piperidin-1-yl)methyl)-1-oxoisoindolin-2-yl)dihydropyrimidine-2,4(1H,3H)-dione] | B (80%< substrate protein remaining % ≤100%) | 100 to 300 | A (0% ≤ substrate protein remaining % ≤80%) | A (0% ≤ substrate protein remaining % ≤80%) | B (80%< substrate protein remaining % ≤100%) | B (80%< substrate protein remaining % ≤100%) | A (0% ≤ substrate protein remaining % ≤80%)
O=C1CCN(N2Cc3cc(CN4CCC(N5CCc6cc(F)ccc65)CC4)ccc3C2=O)C(=O)N1 [GT-05165, 1-(5-((4-(5-fluoroindolin-1-yl)piperidin-1-yl)methyl)-1-oxoisoindolin-2-yl)dihydropyrimidine-2,4(1H,3H)-dione] | B (80%< substrate protein remaining % ≤100%) | 500 to 1000 | A (0% ≤ substrate protein remaining % ≤80%) | B (80%< substrate protein remaining % ≤100%) | B (80%< substrate protein remaining % ≤100%) | B (80%< substrate protein remaining % ≤100%) | A (0% ≤ substrate protein remaining % ≤80%)
O=C1CCN(N2Cc3cc(CN4CC=C(c5ccnc6cc(F)ccc56)CC4)ccc3C2=O)C(=O)N1 [GT-05166, 1-(5-((4-(7-fluoroquinolin-4-yl)-3,6-dihydropyridin-1(2H)-yl)methyl)-1-oxoisoindolin-2-yl)dihydropyrimidine-2,4(1H,3H)-dione] | B (80%< substrate protein remaining % ≤100%) | 100 to 300 | A (0% ≤ substrate protein remaining % ≤80%) | A (0% ≤ substrate protein remaining % ≤80%) | A (0% ≤ substrate protein remaining % ≤80%) | A (0% ≤ substrate protein remaining % ≤80%) | A (0% ≤ substrate protein remaining % ≤80%)
Cn1cc(C2=CCN(Cc3ccc4c(c3)CN(N3CCC(=O)NC3=O)C4=O)CC2)c2ccc(F)cc21 [GT-05167, 1-(5-((4-(6-fluoro-1-methyl-1H-indol-3-yl)-3,6-dihydropyridin-1 (2H)-yl)methyl)-1-oxoisoindolin-2-yl)dihydropyrimidine-2,4(1H,3H)-dione] | B (80%< substrate protein remaining % ≤100%) | 10 to 50 | A (0% ≤ substrate protein remaining % ≤80%) | A (0% ≤ substrate protein remaining % ≤80%) | A (0% ≤ substrate protein remaining % ≤80%) | A (0% ≤ substrate protein remaining % ≤80%) | A (0% ≤ substrate protein remaining % ≤80%)
